Consider two compounds from patent US10519099B2, “Cystobactamides” (priority 2014, dated 2019).

Assay [1] deals with Pichia anomala DSM-6766. The assay is described as follows: MIC microdilution, Pichia anomala DSM-6766. It is filed as cell-based. The conditions noted are these: Hansenula anomala. The method, then: (§1) Indicator strains used in susceptibility assays were either part of our strain collection or purchased from the German Collection of Microorgansims and Cell Cultures (DSMZ) or from the American Type Culture Collection (ATCC). E. coli strain WT and corresponding E. coli mutants were kindly provided by Prof. Dr. P. Heisig, Pharmaceutical Biology and Microbiology, University of Hamburg. E. coli strains JW0401-1 (WT) and Δtsx were obtained from the CGSC collection.
(§2) MIC values were determined in standardized microdilution assays. Overnight cultures were diluted in the appropriate growth medium to achieve an inoculum of 10^4-10^6 cfu/mL. Yeasts were grown in Myc medium (1% phytone peptone, 1% glucose, 50 mM HEPES, pH 7.0), S. pneumonia and Enterococcus spp. in tryptic soy broth (TSB: 1.7% peptone casein, 0.3% peptone soymeal, 0.25% glucose, 0.5% NaCl, 0.25% K2HPO4; pH 7.3); M. smegmatis in Middlebrook 7H9 medium supplemented with 10% Middlebrook ADC enrichment and 2 ml/I glycerol). All other listed bacteria were grown in Müller-Hinton broth (0.2% beef infusion solids, 1.75% casein hydrolysate, 0.15% starch, pH 7.4). […] Growth inhibition was assessed by visual inspection and the MIC was defined as the lowest concentration of compound that inhibited visible growth.

The test system of assay [2] is Acinetobacter baumannii DSM-30008. The assay is described as follows: MIC microdilution, A. baumannii DSM-30008. The conditions noted are these: Acinetobacter baumannii, DSM30008. It is filed as cell-based. The method, then:
as §1
(§3) MIC values were determined in standardized microdilution assays. Overnight cultures were diluted in the appropriate growth medium to achieve an inoculum of 10^4-10^6 cfu/mL. Yeasts were grown in Myc medium (1% phytone peptone, 1% glucose, 50 mM HEPES, pH 7.0), S. pneumonia and Enterococcus spp. in tryptic soy broth (TSB: 1.7% peptone casein, 0.3% peptone soymeal, 0.25% glucose, 0.5% NaCl, 0.25% K2HPO4; pH 7.3); M. smegmatis in Middlebrook 7H9 medium supplemented with 10% Middlebrook ADC enrichment and 2 ml/I glycerol). All other listed bacteria were grown in Müller-Hinton broth (0.2% beef infusion solids, 1.75% casein hydrolysate, 0.15% starch, pH 7.4). Cystobactamides and reference drugs were added directly to the cultures in sterile 96-well plates as duplicates and serial dilutions were prepared. Microorganisms were grown on a microplate shaker (750 rpm, 30-37° C., 18-48 h), except S. pneumonia, which was grown at non-shaking conditions (37° C., 5% CO2, 18 h). Growth inhibition was assessed by visual inspection and the MIC was defined as the lowest concentration of compound that inhibited visible growth.

Assay [3] has as its system Serratia marcescens DSM-30121. The assay is described as follows: MIC microdilution, Serratia marcescens DSM-30121. Format: cell-based. The conditions noted are these: Serratia marcescens. As to the method:
as §1, §3
(In general: Broth dilution looks for growth in wells or tubes with falling amounts of substance.)

The subject of assay [4] is Enterobacter aerogenes DSM-30053. The assay is described as follows: MIC microdilution, Enterobacter aerogenes DSM-30053. The note with it: Klebsiella aerogenes. It is filed as cell-based. As to the method: as §1, §2
In assay [5] the test system is Proteus vulgaris DSM-2140. The assay is described as follows: MIC microdilution, P. vulgaris DSM-2140. It is filed as cell-based. The conditions noted are these: Proteus vulgaris, DSM2140. As to the method:
as §1, §3

Assay [6] relates to Pseudomonas aeruginosa DSM-46316 (ESBL). The assay is described as follows: MIC microdilution, P. aeruginosa DSM-46316 (ESBL). It is filed as cell-based. The note with it: Pseudomonas aeruginosa. The method, then: as §1, §3
For assay [7], the system named is Klebsiella pneumoniae DSM-30104. The assay is described as follows: MIC microdilution, Klebsiella pneumoniae DSM-30104. It is filed as cell-based. As to the method:
as §1, §2

In assay [8] the test system is Escherichia coli WT-3.2 [gyrA(D87G)]. The assay is described as follows: MIC microdilution, E. coli WT-3.2 [gyrA(D87G)]. Format: cell-based. The note with it: read-out: MIC Escherichia coli WT-3.2 [gyrA(D87G)]. As to the method:
as §1, §2

The subject of assay [9] is Enterococcus faecalis ATCC29212. The assay is described as follows: MIC microdilution, Enterococcus faecalis ATCC29212. Format: cell-based. As to the method: as §1, §2
Assay [10] concerns CHO-K1 (Chinese hamster ovary cell line). Briefly: Cytotoxicity (MTT), CHO-K1 cell line. Format: cell-based. The conditions noted are these: Cricetulus griseus, CHO-K1, 120 h, 5 d incubation. The method, then:
CHO-K1 cells were obtained from the DSMZ and were cultured under conditions recommended by the depositor. Cells were seeded at 6×10^3 cells/well of 96-well plates in 180 μl complete medium and treated with compounds in serial dilution after 2 h of equilibration. Each sample was tested in duplicate as well as the internal DMSO control. After 5 d incubation, 20 μl of 5 mg/ml MTT (thiazolyl blue tetrazolium bromide) in PBS was added per well and it was further incubated for 2 h at 37° C. The medium was then discarded and cells were washed with 100 μl PBS before adding 100 μl 2-propanol/10 N HCl (250:1) in order to dissolve formazan granules. The absorbance at 570 nm was measured using a microplate reader (Tecan Infinite M200Pro), and cell viability was expressed as percentage relative to the respective […] control.

The test system of assay [11] is E. coli JW0401-1 (WT). Briefly: MIC microdilution, E. coli JW0401-1 (WT). The conditions noted are these: Escherichia coli; Gram-negative set. Format: cell-based, Escherichia coli. The method, then: as §1, §2
The subject of assay [12] is E. coli Δtsx. Briefly: MIC microdilution, E. coli Δtsx. Format: cell-based, Escherichia coli. The conditions noted are these: Gram-negative set. As to the method: as §1, §2
Assay [13] concerns Enterobacter cloacae DSM-30054. Briefly: MIC microdilution, Enterobacter cloacae DSM-30054. Format: cell-based. The note with it: Enterobacter cloacae, DSM30054, read-out: MIC Enterobacter cloacae DSM-30054. The method, then:
Dr. P. Heisig, Pharmaceutical Biology and Microbiology, University of Hamburg.
Overnight cultures were diluted in the appropriate growth medium to achieve an inoculum of 10^4-10^6 cfu/mL. […] Cystobactamides and reference drugs were added directly to the cultures in sterile 96-well plates as duplicates and serial dilutions were prepared. Microorganisms were grown on a microplate shaker (750 rpm, 30-37° C., 18-48 h), except S. pneumonia, which was grown at non-shaking conditions (37° C., 5% CO2, 18 h). Growth inhibition was assessed by visual inspection and the MIC was defined as the lowest concentration of compound that inhibited visible growth.

The target of assay [14] is T1, E. coli gyrase (Escherichia coli, UniProt P0AES4+P0AES6).
T1 construct: purchased Inspiralis, Norwich, UK
The assay is described as follows: E. coli gyrase DNA supercoiling assay. It is filed as biochemical. The note with it: read-out: IC50 Ec gyrase (sc). As to the method:
(§4) To test the anti-gyrase activity of cystobactamides, commercial E. coli and P. aeruginosa gyrase supercoiling kits (Inspiralis, Norwich, UK) were used. For standard reactions 0.5 μg relaxed plasmid were mixed with 1 unit gyrase in 1× reaction buffer (see kit manual) and incubated for 30 min at 37° C. The reactions were quenched by the addition of DNA gel loading buffer containing 10% (w/v) SDS. The samples were separated on 1% (w/v) agarose gels and DNA was visualized using EtBr. All natural products stock solutions and dilutions were prepared in 100% DMSO and added to the supercoiling reactions giving a final DMSO concentration of 2% (v/v).

Assay [15] deals with T2, P. aeruginosa gyrase (Pseudomonas aeruginosa, UniProt P48372+Q9I7C2).
T2 construct: purchased Inspiralis, Norwich, UK
The assay is described as follows: P. aeruginosa gyrase DNA supercoiling assay. It is filed as biochemical. The conditions noted are these: read-out: IC50 Pa gyrase (sc). As to the method:
as §4

Assay [16] concerns Staphylococcus aureus ATCC29213. The assay is described as follows: MIC microdilution, Staphylococcus aureus ATCC29213. The conditions noted are these: ATCC29213, read-out: MIC Staphylococcus aureus ATCC29213. It is filed as cell-based. The method, then: as §1, §2
Where [17] appears, read: Gram-negative set, read-out: MIC A. baumannii DSM-30008.
Where [18] appears, read: larger panel, read-out: MIC Acinetobacter baumannii DSM-30008.
The mark [19] stands for this setting: Gram-negative set, read-out: MIC P. vulgaris DSM-2140.
Setting [20] is: larger panel, read-out: MIC Proteus vulgaris DSM-2140.

≈ marks a conversion by molar mass, not a printed value. Like-named read-outs stand apart in the source and are kept apart here.

A word on the MIC: it is the smallest concentration in the dilution series that meets the test's criterion for growth inhibition. As for `O=C(O)c1cn(C2CC2)c2cc(N3CCNCC3)c(F)cc2c1=O` [CP, Ciprofloxacin, reference compound], the MIC in assay [1] (DSM6766, larger panel, read-out: MIC Pichia anomala DSM-6766) is more than 6.4 µg/mL; in [2] (setting [17]), 0.8 µg/mL (≈ 2.41 µM); in [2] (setting [18]), 0.2 to 0.4 µg/mL (≈ 0.604 to 1.21 µM); in assay [3] (DSM30121, larger panel, read-out: MIC Serratia marcescens DSM-30121) it was 0.1 µg/mL (≈ 0.302 µM); in [4] (DSM30053, larger panel, read-out: MIC Enterobacter aerogenes DSM-30053) it was 0.1 to 0.2 µg/mL (≈ 0.302 to 0.604 µM); in [5] (setting [19]) it was 0.01 µg/mL (≈ 0.0302 µM). Also, the MIC was 0.01 µg/mL (≈ 0.0302 µM) in assay [5] (setting [20]); 0.1 µg/mL (≈ 0.302 µM) in assay [6] (DSM46316, larger panel, read-out: MIC Pseudomonas aeruginosa DSM-46316 (ESBL)); 0.025 µg/mL (≈ 0.0754 µM) in assay [7] (DSM30104, larger panel, read-out: MIC Klebsiella pneumoniae DSM-30104); 0.4 µg/mL (≈ 1.21 µM) in [8]; 0.8 µg/mL (≈ 2.41 µM) in assay [9] (ATCC29212, larger panel, read-out: MIC Enterococcus faecalis ATCC29212).
In general, IC50 refers to the point on the concentration scale where inhibition reaches its midpoint. As for `COC(C(N)=O)C(NC(=O)c1ccc(NC(=O)c2ccc([N+](=O)[O-])cc2)cc1)C(=O)Nc1ccc(C(=O)Nc2ccc(C(=O)Nc3ccc(C(=O)O)cc3OC(C)C)c(O)c2OC(C)C)cc1` (centres unmarked) [Cys 919-2], the MIC was more than 64 µg/mL in assay [1] (DSM6766, read-out: MIC Pichia anomala DSM-6766); 8 µg/mL (≈ 8.7 µM) in assay [2] (setting [17]); 8 µg/mL (≈ 8.7 µM) in assay [2] (setting [18]); more than 64 µg/mL in assay [3] (DSM30121, read-out: MIC Serratia marcescens DSM-30121); 1 µg/mL (≈ 1.09 µM) in assay [11]; more than 64 µg/mL in assay [4] (DSM30053, read-out: MIC Enterobacter aerogenes DSM-30053). For the same compound, the MIC is 4 µg/mL (≈ 4.35 µM) in assay [5] (setting [19]); 4 µg/mL (≈ 4.35 µM) in assay [5] (setting [20]); more than 64 µg/mL in assay [13]; more than 64 µg/mL in assay [6] (DSM46316, read-out: MIC Pseudomonas aeruginosa DSM-46316 (ESBL)); more than 64 µg/mL in assay [7] (DSM30104, read-out: MIC Klebsiella pneumoniae DSM-30104); 4 µg/mL (≈ 4.35 µM) in assay [8]. Moreover, the MIC in assay [9] (ATCC29212, read-out: MIC Enterococcus faecalis ATCC29212) is 0.1 µg/mL (≈ 0.109 µM); in [16] it was 0.1 µg/mL (≈ 0.109 µM). Moreover, the IC50 is approximately 50 µM in [10], 670 nM in assay [14] and 340 nM in assay [15]. The “MIC E. coli Δtsx” value in assay [12] is 1 µg/mL (≈ 1.09 µM).
